Results published in PubChem BioAssay (NCI).
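Exposure lasted 48 hours, with cells grown in 96-well plates and compounds tested at five concentrations. TGI is the concentration that stops growth completely.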

Assays:
Experiment in all cases: NCI-60 cell line screen, 48 h
DMS 114 small cell lung = tested on: DMS 114 small cell lung
SR leukemia = tested on: SR leukemia
SNB-78 CNS = tested on: SNB-78 CNS
DLD-1 colon = tested on: DLD-1 colon
RXF-631 renal = tested on: RXF-631 renal
HOP-18 NSCLC = tested on: HOP-18 NSCLC

Row | Structure (SMILES) | TGI (DMS 114 small cell lung) [µM] | TGI (SR leukemia) [µM] | TGI (SNB-78 CNS) [µM] | TGI (DLD-1 colon) [µM] | TGI (RXF-631 renal) [µM] | TGI (HOP-18 NSCLC) [µM]
1 | CC1CC(c2ccc([N+](=O)[O-])cc2)=Nc2ccccc2S1=O (stereo unspecified) | 33.2 | 76.6 | > 100 | 33.6 | 52.6 | –
2 | Cc1ccc(C(=O)N/N=C(\N=Nc2ccccc2)c2ccc(N(CCC#N)CCC#N)cc2C)cc1 | – | > 100 | – | – | – | –
3 | O=c1[nH]c(=S)c2[nH]c(=O)n(-c3ccccc3)c2[nH]1 | – | > 100 | – | – | – | –
4 | COc1ccc2oc3c(ccc[n+]3C)c(=O)c2c1 | – | > 100 | – | – | – | –
5 | CC(=O)O[C@@H]1CN(S(=O)(=O)c2ccc(C)cc2)C[C@@H]1C1CCCCC1 | – | > 100 | – | – | – | –
6 | O=C1NC(=O)C2(CCc3ccc(N(CCCl)CCCl)cc32)N1 (stereo unspecified) | 26 | – | > 100 | > 81.8 | – | 64.4
7 | C/C=C1/C(=O)O[C@]23C=C[C@@H]4C(C(=O)OC)=CO[C@H](O[C@@H]12)[C@@H]43 | 2.82 | – | 23.6 | 2.94 | – | 10.4
8 | COc1cc2c(cc1O)N=C[C@@H]1CCC(O)N1C2=O (mixture of isomers) | 1.41 | – | 46.3 | 13.5 | – | 3.39
